Assay: assays described herein (not specified)

Structure (SMILES)	active in the assays described herein
CCCOc1ccc(C2Oc3ccc(Br)cc3C=C2[N+](=O)[O-])cc1OC (stereo not shown) [Compound 59, 6-bromo-2-(3-methoxy-4-propoxyphenyl)-3-nitro-2H-chromene]	active
O=C1NC(=O)N(c2ccc(Cl)cc2)C(=O)C1=Cc1ccc([N+](=O)[O-])o1 [Compound 65, 1-(4-chlorophenyl)-5-[(5-nitro-2-furyl)methylene]-2,4,6(1H,3H,5H)-pyrimidinetrione]	active
CCc1ccc(N2N=C(C)C(=Cc3cc(OC)c(O)c(OC)c3)C2=O)cc1 [Compound 72, 2-(4-ethylphenyl)-4-(4-hydroxy-3,5-dimethoxybenzylidene)-5-methyl-2,4-dihydro-3H-pyrazol-3-one]	active
O=[N+]([O-])c1ccccc1SNc1ccc2c(c1)OCO2 [Compound 75, 5-{[(2-nitrophenyl)thio]amino}-1,3-benzodioxole]	active
Cn1cccc1C=NN1CCN(Cc2cccc3ccccc23)CC1 [Compound 83, N-[(1-methyl-1H-pyrrol-2-yl)methylene]-4-(1-naphthylmethyl)-1-piperazinamine]	active
Oc1ccc(C(c2c[nH]c3ccccc23)c2c[nH]c3ccccc23)cc1O [Compound 86, 4-(di-1H-indol-3-ylmethyl)-1,2-benzenediol]	active
O=C(c1ccc(Br)cc1)c1ccc(N2CCCCC2)c([N+](=O)[O-])c1 [Compound 92, (4-bromophenyl)[3-nitro-4-(1-piperidinyl)phenyl]methanone]	active
CN(C)c1ccc2sc(S)nc2c1 [Compound 95, 5-(dimethylamino)-1,3-benzothiazole-2-thiol]	active
CCOc1ccc(C(=O)c2ccc(N3CC(C)OC(C)C3)c([N+](=O)[O-])c2)cc1 (stereo not shown) [Compound 102, [4-(2,6-dimethyl-4-morpholinyl)-3-nitrophenyl](4-ethoxyphenyl)methanone]	active
O=C(c1cccs1)N1CCN(c2ccc([N+](=O)[O-])c(N3CCCC3)c2)CC1 [Compound 114, 1-[4-nitro-3-(1-pyrrolidinyl)phenyl]-4-(2-thienylcarbonyl)piperazine]	active

Source: patent US10098887B2, “Antiviral compounds and methods of use thereof” (Trana Discovery, Inc., priority 2010, dated 2018)
